Laboratory results published in patent publication US20250090996A1, “ACID GAS REMOVAL METHOD, ACID GAS ABSORBENT, AND ACID GAS REMOVAL APPARATUS” (KABUSHIKI KAISHA TOSHIBA, priority 2023, published 2025).

How the values were obtained:
[1] = Amount of compound dissolved in water (total organic carbon of lower aqueous phase); type: physicochemical; conditions: 25° C., atmospheric pressure, converted from total organic carbon of lower phase
From the text: An acid gas absorbent according to the embodiment contains an amine compound and water, as main agents for absorbing an acid gas. The amine compound used here is a liquid amine compound having a secondary amine structure. An acid gas remover contains a mixture of the liquid amine compound and water, and an amount of a salt to be dissolved in water is larger than an amount of the liquid amine compound itself to be dissolved in water, the salt being formed from the liquid amine compound and the acid gas. Here, the liquid amine compound is an amine compound that is liquid at 25° C. under atmospheric pressure. An amount of the liquid amine compound to be dissolved at room temperature is generally small, and, for example, an amount of the liquid amine compound to be dissolved in water at 25° C. is 50,000 mg/L or less. Upon contact of the liquid amine compound with the acid gas, a salt is formed, and is ionized when water coexists, to increase the dissolved amount. The amount of such a salt to be dissolved is, for example, 2 times or more, preferably 5 times or more, and more preferably 10 times or more the amount of the liquid amine to be dissolved as a base at 25° C. In the present embodiment, the dissolved amount (mg/L) is a mass (mg) of the liquid amine based on a total volume (L) of water and the liquid amine compound.
(§1) When a compound (a-1) of General Formula (a) wherein R^1 and R^3 are 1-ethylpropyl groups and R^2 is C3 linear alkyl and water were blended at a mass ratio of 50:50, two phases of an organic phase (amine compound phase) as an upper phase and an aqueous phase as a lower phase were formed. […] The temperature in the column was changed in a range of 60° C. to 70° C., and an inert gas was caused to flow at 50 ml/min. […] Here, the amount of carbon dioxide saturated and absorbed is a value obtained by measuring the amount of inorganic carbon in the acid gas absorbent with an infrared gas concentration measuring apparatus. The amount of this compound dissolved was 18,000 mg/L at 25° C. and under atmospheric pressure. The amount of the compound dissolved was determined by sampling the lower phase of the two phases fractionated, measuring the total organic carbon concentration with a total organic carbon meter TOC-L (trade name) manufactured by Shimadzu Corporation, and converting it into the amount of amine dissolved from the chemical formula of the compound (a-1).

[2] = Phase state of amine/water mixture before and after carbon dioxide absorption; type: physicochemical; conditions: for phase state after absorbing carbon dioxide: mixture with water 50:50 after CO2:N2=1:9 bubbling; for phase state when blended with water: ratio 50:50, before carbon dioxide absorption, organic upper phase, aqueous lower phase
From the text: Here, in the present embodiment, the “state in which the organic phase and the aqueous phase are phase-separated” means that, for example, a mixture of water and a liquid amine has a relationship in which a state in which the organic phase and the aqueous phase are phase-separated, in other words, a boundary between the organic phase and the aqueous phase can be visually confirmed. Here, in the present embodiment, the organic phase is a phase containing the liquid amine compound as a main component in a state of being phase-separated, and is also a phase containing a high concentration of the liquid amine compound in a state of being separated from the acid gas. The aqueous phase is a phase containing water as a main component in a state of being phase-separated. At a high carbon dioxide concentration, the acid gas absorbent has an increased amount of the liquid amine compound to be dissolved in water, and the liquid amine compound is dissolved in an aqueous solution. In the acid gas absorbent, the organic phase and the aqueous phase are not phase-separated in this state (the acid gas absorbent has one phase). At a low acid gas concentration, the acid gas absorbent is decreased in solubility of the liquid amine compound in water, and is phase-separated into an aqueous phase and an organic phase containing a high concentration of the liquid amine compound. When the acid gas absorbent is phase-separated, the organic phase and the aqueous phase typically form complete two phases. However, in the present embodiment, even when it is not completely phase-separated, the organic phase and the aqueous phase are referred to as “two phases” in a case where a boundary between the phases can be confirmed.
Hereinafter, Examples of the embodiment will be described. In the following Examples, conditions before heating the acid gas absorbent were 25° C. and atmospheric pressure.
as §1

[3] = Regeneration (carbon dioxide release) on heated molecular sieve 4A column; conditions: column 60° C. to 70° C., inert gas 50 ml/min, fractionated
Experimental: as §1

[4] = S concentration of aqueous phase after adding sulfuric acid (ICP); type: physicochemical; conditions: 1 ml of 1 mol/l sulfuric acid added to 30 ml of mixture with water (volume ratio 50:50), after stirring
Experimental: When the compound (a-1) and water were blended at a volume ratio of 50:50, two phases of an organic phase as an upper phase and an aqueous phase as a lower phase were formed. One (1) ml of 1 mol/1 sulfuric acid was added to 30 ml of the mixture, and, after stirring, the S concentration of the aqueous phase was measured by ICP. As a result, the S concentration was 17.6 mg-S/L (Reference Example 1).

[5] = Phase state of amine/water mixture before and after carbon dioxide absorption; type: physicochemical; conditions: volume ratio 50:50

| SMILES | amount of compound dissolved [1] | phase state after absorbing carbon dioxide [2] | phase state when blended with water [2] | phase state of mixture after passing through column [3] | S concentration of the aqueous phase [4] [mg-S/L] | phase state when blended with water [5] |
| --- | --- | --- | --- | --- | --- | --- |
| CC(C)CC(C)NCCCNCCCNC(C)CC(C)C (stereo not shown) [compound (b-3)] | 11,000 mg/L | formed one phase | two phases | two phases were formed |  |  |
| CC(C)CC(C)NCCCN(C)CCCNC(C)CC(C)C (stereo not shown) [compound (b-2)] | 4,000 mg/L | formed one phase | two phases | two phases were formed |  |  |
| CCC(CC)NCCCN(C)CCCNC(CC)CC [compound (b-1)] | 22,000 mg/L | formed one phase | two phases | two phases were formed |  |  |
| CC(C)N(C)C(C)C [diisopropylmethylamine, reference compound] |  |  | two phases |  |  |  |
| CCC(CC)NCCCNC(CC)CC [compound (a-1)] | 18,000 mg/L | formed one phase | two phases | two phases were formed | 17.6 | two phases |
